Measured values reported in ChEMBL document CHEMBL6109077, “Design, synthesis and in vitro validation of bivalent binders of SARS-CoV-2 spike protein: Obeticholic, betulinic and glycyrrhetinic acids as building blocks” (Bioorg Med Chem, 2025).
Active and inactive are the calls of the source. The calls are words filed in the database; no cut-off is given here.

Experiments:
293T/ACE2 [1] = experiment: Inhibition of spike protein D614G mutant in pseudotyped SARS-CoV-2 infected in 293T/ACE2 cells assessed as reduction in viral entry at 10 uM preincubated with virus for 1 hr followed by cell infection and measured after 48 hrs by bright-glo luciferase reporter gene assay; type: cell-based; conditions: Severe acute respiratory syndrome coronavirus 2, time 49.0 hrs
293T/ACE2 [2] = experiment: Inhibition of spike protein Omicron BA.2 mutant in pseudotyped SARS-CoV-2 infected in 293T/ACE2 cells assessed as reduction in viral entry at 10 uM preincubated with virus for 1 hr followed by cell infection and measured after 48 hrs by bright-glo luciferase reporter gene assay; type: cell-based; conditions: Severe acute respiratory syndrome coronavirus 2, time 49.0 hrs

| Structure (SMILES) | inhibition (293T/ACE2 [1]) | inhibition (293T/ACE2 [2]) |
| --- | --- | --- |
| C=C(C)[C@@H]1CC[C@]2(C(=O)O)CC[C@]3(C)[C@H](CC[C@@H]4[C@@]5(C)CC[C@H](O)C(C)(C)[C@@H]5CC[C@]43C)[C@@H]12 | Not active; No Statistically Significant Decrease Observed | Not active; No Statistically Significant Decrease Observed |
| C=C(C)[C@@H]1CC[C@]2(C(=O)OC)CC[C@]3(C)[C@H](CC[C@@H]4[C@@]5(C)CC[C@H](OC(=O)CCCCCCCCNC(=O)CC[C@@H](C)[C@H]6CC[C@H]7[C@@H]8[C@H](O)[C@H](CC)[C@@H]9C[C@H](O)CC[C@]9(C)[C@H]8CC[C@]67C)C(C)(C)[C@@H]5CC[C@]43C)[C@@H]12 | Active; Statistically Significant Effect Observed | Active; Statistically Significant Effect Observed |
| CC[C@H]1[C@@H](O)[C@@H]2[C@H](CC[C@]3(C)[C@@H]([C@H](C)CCC(=O)O)CC[C@@H]23)[C@@]2(C)CC[C@@H](O)C[C@@H]12 | Not active; No Statistically Significant Decrease Observed | Not active; No Statistically Significant Decrease Observed |
| CC[C@H]1[C@@H](O)[C@@H]2[C@H](CC[C@]3(C)[C@@H]([C@H](C)CCC(=O)NCCCCCCn4cc(CCCCC(=O)O[C@H]5CC[C@H]6[C@@H](CC[C@]7(C)[C@@H]6C(=O)C=C6[C@@H]8C[C@@](C)(C(=O)OC)CC[C@]8(C)CC[C@]67C)C5(C)C)nn4)CC[C@@H]23)[C@@]2(C)CC[C@@H](O)C[C@@H]12 | inactive | inactive |
| C=C(C)[C@@H]1CC[C@]2(C(=O)OC)CC[C@]3(C)[C@H](CC[C@@H]4[C@@]5(C)CC[C@H](OC(=O)CCCNC(=O)CC[C@@H](C)[C@H]6CC[C@H]7[C@@H]8[C@H](O)[C@H](CC)[C@@H]9C[C@H](O)CC[C@]9(C)[C@H]8CC[C@]67C)C(C)(C)[C@@H]5CC[C@]43C)[C@@H]12 | Active; Statistically Significant Effect Observed | Active; Statistically Significant Effect Observed |
| C=C(C)[C@@H]1CC[C@]2(C(=O)OC)CC[C@@]3(C)[C@@H]4CC[C@@H]5[C@H](CC[C@H](OC(=O)CCCCc6cn(CCCCCCNC(=O)CC[C@@H](C)[C@H]7CC[C@H]8[C@@H]9[C@H](O)[C@H](CC)[C@@H]%10C[C@H](O)CC[C@]%10(C)[C@H]9CC[C@]78C)nn6)C5(C)C)[C@H]4CC[C@@H]3[C@@H]12 | inactive | Active; Significant Effect Observed |
| CC1(C)[C@@H](O)CC[C@]2(C)[C@H]3C(=O)C=C4[C@@H]5C[C@@](C)(C(=O)O)CC[C@]5(C)CC[C@@]4(C)[C@]3(C)CC[C@@H]12 | Not active; No Statistically Significant Decrease Observed | Not active; No Statistically Significant Decrease Observed |
